The results in this text go back to patent US7205295B2, “Benzoxazin-3-ones and derivatives thereof as therapeutic agents” (Warner-Lambert Company LLC, priority 2002, dated 2007).

Structures can show the parent of a compound that is named as a salt.

The target in the test is T1, PI3Kγ (p101/p110γ protein) (Homo sapiens, UniProt P48736).
T1 construct: HA; made in house; host or cells: Spodoptera frugiperda (Sf9) cells, baculovirus co-infection
T1 sequence (P48736 whole entry, species assumed): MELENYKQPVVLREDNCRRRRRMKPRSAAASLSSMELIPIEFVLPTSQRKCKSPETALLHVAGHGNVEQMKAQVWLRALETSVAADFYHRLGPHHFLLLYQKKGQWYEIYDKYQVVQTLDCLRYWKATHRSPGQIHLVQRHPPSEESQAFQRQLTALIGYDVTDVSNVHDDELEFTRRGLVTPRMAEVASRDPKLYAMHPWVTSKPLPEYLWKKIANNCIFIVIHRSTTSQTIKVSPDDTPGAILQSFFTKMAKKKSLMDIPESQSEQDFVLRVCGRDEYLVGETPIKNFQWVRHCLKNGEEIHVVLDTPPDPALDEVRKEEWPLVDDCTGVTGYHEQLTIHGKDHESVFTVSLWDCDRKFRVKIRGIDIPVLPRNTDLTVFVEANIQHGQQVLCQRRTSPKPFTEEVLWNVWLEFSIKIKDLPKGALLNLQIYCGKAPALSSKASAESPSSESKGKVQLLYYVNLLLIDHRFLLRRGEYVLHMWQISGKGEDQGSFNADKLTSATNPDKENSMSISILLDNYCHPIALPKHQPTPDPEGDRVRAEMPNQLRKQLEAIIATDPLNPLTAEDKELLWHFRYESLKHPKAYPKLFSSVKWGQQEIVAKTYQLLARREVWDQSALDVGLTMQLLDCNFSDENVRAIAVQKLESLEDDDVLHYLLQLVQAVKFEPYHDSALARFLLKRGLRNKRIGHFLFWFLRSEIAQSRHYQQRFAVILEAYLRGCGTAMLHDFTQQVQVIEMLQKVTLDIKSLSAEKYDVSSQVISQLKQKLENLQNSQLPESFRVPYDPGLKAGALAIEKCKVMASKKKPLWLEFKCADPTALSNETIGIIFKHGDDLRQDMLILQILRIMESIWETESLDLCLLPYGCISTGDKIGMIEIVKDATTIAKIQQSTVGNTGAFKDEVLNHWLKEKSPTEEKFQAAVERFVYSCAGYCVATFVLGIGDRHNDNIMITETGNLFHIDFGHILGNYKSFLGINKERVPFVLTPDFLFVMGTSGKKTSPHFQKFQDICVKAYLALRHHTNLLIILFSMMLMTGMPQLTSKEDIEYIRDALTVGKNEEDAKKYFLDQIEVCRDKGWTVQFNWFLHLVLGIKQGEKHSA
T1 sequence (Q8WYR1 whole entry partner, species assumed): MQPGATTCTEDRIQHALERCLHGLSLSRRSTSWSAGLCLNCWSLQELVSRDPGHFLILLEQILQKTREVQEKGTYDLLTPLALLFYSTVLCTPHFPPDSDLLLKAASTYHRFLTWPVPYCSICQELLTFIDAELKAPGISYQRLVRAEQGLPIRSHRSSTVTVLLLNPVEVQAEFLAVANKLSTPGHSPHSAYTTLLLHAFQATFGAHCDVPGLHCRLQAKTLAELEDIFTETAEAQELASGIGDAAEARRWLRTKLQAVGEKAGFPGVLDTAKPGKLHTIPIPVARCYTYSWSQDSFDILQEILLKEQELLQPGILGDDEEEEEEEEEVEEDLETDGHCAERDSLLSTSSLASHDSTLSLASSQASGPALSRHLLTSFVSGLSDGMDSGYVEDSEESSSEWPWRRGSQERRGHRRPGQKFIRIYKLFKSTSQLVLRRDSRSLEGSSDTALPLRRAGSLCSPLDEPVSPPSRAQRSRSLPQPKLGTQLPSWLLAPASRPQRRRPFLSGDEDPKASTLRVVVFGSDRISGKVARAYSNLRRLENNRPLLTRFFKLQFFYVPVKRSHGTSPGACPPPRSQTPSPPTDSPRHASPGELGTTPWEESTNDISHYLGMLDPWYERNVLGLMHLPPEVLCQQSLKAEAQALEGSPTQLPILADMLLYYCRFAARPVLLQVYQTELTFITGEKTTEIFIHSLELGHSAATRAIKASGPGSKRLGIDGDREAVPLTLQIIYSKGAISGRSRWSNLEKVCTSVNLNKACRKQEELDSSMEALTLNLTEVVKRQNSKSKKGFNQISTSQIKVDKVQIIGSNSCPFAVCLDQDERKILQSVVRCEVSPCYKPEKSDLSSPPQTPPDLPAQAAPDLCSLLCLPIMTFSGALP
The test can be described thus: PI3Kγ In Vitro Kinase Assay. It is filed as biochemical. The following applies: purified recombinant p101/p110γ with G protein β1/γ2 subunits; 20 μM ATP, 25 μM PIP2; 20 minutes at room temperature. Summed up: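 Sf9-expressed, purified human p101/p110γ (2.7 nM) was activated by Gβ1/γ2 (57.7 nM) and reacted with 20 μM ATP plus [γ-32P]ATP on PIP2 (25 μM)/PE (300 μM) micelles with 10 mM MgCl2 in HEPES buffer. Reactions ran 20 min at room temperature. Filter-captured radiolabeled PIP3 was counted by scintillation.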
Regarding `C=Cc1cc(CN2C(=O)COc3ccc(C=C4SC(=S)NC4=O)cc32)cc(C(C)(C)C)c1` [Example 56, 4-(3-tert-Butyl-5-vinyl-benzyl)-6-(4-oxo-2-thioxo-thiazolidin-5-ylidenemethyl)-4H-1,4-benzoxazin-3-one], the IC50 was determined as 18 nM. For the molecule `CC(C)(O)c1cc(Cl)cc(CN2C(=O)COc3c(F)cc(C=C4SC(=S)NC4=O)cc32)c1` [Example 293, 4-[3-Chloro-5-(1-hydroxy-1-methyl-ethyl)-benzyl]-8-fluoro-6-(4-oxo-2-thioxo-thiazoldin-5-ylidenemethyl)-4H-benzo[1,4]oxazin-3-one; Compound with Ethane-1,2-diamine], the IC50 worked out at 15 nM.

Turning to `O=C1NC(=S)SC1=Cc1ccc2c(c1)N(Cc1cccnc1)C(=O)CO2` [Example 12, 6-(4-Oxo-2-thioxo-thiazolidin-5-ylidenemethyl)-4-pyridin-3-ylmethyl-4H-1,4-benzoxazin-3-one], the IC50 was found to be 27 nM. `O=C1NC(=S)OC1=Cc1cc(F)c2c(c1)N(Cc1ccc(F)c(Cl)c1)C(=O)CO2` [Example 300, 4-(3-Chloro-4-fluoro-benzyl)-8-fluoro-6-(4-oxo-2-thioxo-oxazolidin-5-ylidenemethyl)-4H-benzo[1,4]oxazin-3-one]: the IC50 was found to be 3 nM. Regarding `CC(C)(C)c1cc(CN2C(=O)COc3ccc(C=C4OC(=S)NC4=O)cc32)cc(C(C)(C)C)c1` [Example 247, 4-(3,5-Di-tert-butyl-benzyl)-6-(4-oxo-2-thioxo-oxazolidin-5-ylidenemethyl)-4H-1,4-benzoxazin-3-one], the half-maximal inhibitory concentration (IC50) worked out at 10 nM. With `O=C1NC(=S)SC1=Cc1cc(F)c2c(c1)N(Cc1cncc(Cl)c1)C(=O)CO2` [Example 330, 4-(5-Chloro-pyridin-3-ylmethyl)-8-fluoro-6-(4-oxo-2-thioxo-thiazolidin-5-ylidenemethyl)-4H-1,4-benzoxazin-3-one], the IC50 is 47 nM.

`CC1Oc2ccc(C=C3SC(=S)NC3=O)cc2N(Cc2ccc(CN3CCN(C)CC3)cc2)C1=O` (centres unmarked) [Example 223, 2-Methyl-4-[4-(4-methyl-piperazin-1-ylmethyl)-benzyl]-6-(4-oxo-2-thioxo-thiazolidin-5-ylidenemethyl)-4H-1,4-benzoxazin-3-one]: the IC50 stood at 295 nM. On to `CN1C(=O)COc2ccc(C=C3SC(=S)NC3=O)cc21` [Example 2, 4-Methyl-6-(4-oxo-2-thioxo-thiazolidin-5-ylidenemethyl)-4H-1,4-benzoxazin-3-one], for which the IC50 stood at 45 nM.

For the molecule `O=C1NC(=S)SC1=Cc1cc(F)c2c(c1)N(CCc1ccc(Cl)c(Cl)c1)C(=O)CO2` [Example 111, 4-[2-(3,4-dichloro-phenyl)-ethyl]-8-fluoro-6-(4-oxo-2-thioxo-thiazolidin-5-ylidenmethyl)-4H-benzo[1,4]oxazin-3-one], the IC50 stood at 14 nM. For `O=C1NC(=S)SC1=Cc1ccc2c(c1)N(Cc1ccc(Cl)c(C(F)(F)F)c1)C(=O)CO2` [Example 194, 4-(4-Chloro-3-trifluoromethylbenzyl)-6-(4-oxo-2-thioxo-thiazolidin-5-ylidenemethyl)-4H-1,4-benzoxazin-3-one, Potassium Salt], the IC50 worked out at 6 nM. Consider `Cc1cc(C)cc(CCN2C(=O)COc3ccc(C=C4SC(=S)NC4=O)cc32)c1` [Example 30, 4-[2-(3,5-Dimethylphenyl)-ethyl]-6-(4-oxo-2-thioxo-thiazolidin-5-ylidenemethyl)-4H-1,4-benzoxazin-3-one], for which the IC50 was 2 nM.

In the case of `O=C1NC(=S)SC1=Cc1ccc2c(c1)N(Cc1cccc(-c3ccccc3)c1)C(=O)CO2` [Example 38, 4-Biphenyl-3-ylmethyl-6-(4-oxo-2-thioxo-thiazolidin-5-ylidenemethyl)-4H-1,4-benzoxazin-3-one], the IC50 was 6 nM. As to `CC(=O)c1cc(CN2C(=O)COc3ccc(C=C4SC(=S)NC4=O)cc32)cc(C(C)(C)C)c1` [Example 64, 4-(3-Acetyl-5-tert-butyl-benzyl)-6-(4-oxo-2-thioxo-thiazolidin-5-ylidenemethyl)-4H-1,4-benzoxazin-3-one], the IC50 is 16 nM. As for `O=C1NC(=S)SC1=Cc1ccc2c(c1)N(Cc1ccc(OCc3ccccc3)cc1)C(=O)CO2` [Example 163, 4-(4-Benzyloxy-benzyl)-6-(4-oxo-2-thioxo-thiazolidin-5-ylidenemethyl)-4H-1,4-benzoxazin-3-one], the IC50 came out at 30 nM.

On to `CC1CC(C)CN(C(=O)CN2C(=O)COc3ccc(C=C4SC(=S)NC4=O)cc32)C1` (centres unmarked) [Example 213, 4-[2-(3,5-Dimethyl-piperidin-1-yl)-2-oxo-ethyl]-6-(4-oxo-2-thioxo-thiazolidin-5-ylidenemethyl)-4H-1,4-benzoxazin-3-one], for which the IC50 was determined as 2100 nM. Consider `CC(C)(O)c1cc(CN2C(=O)COc3ccc(C=C4SC(=S)NC4=O)cc32)ccc1F` [Example 304, 4-[4-Fluoro-3-(1-hydroxy-1-methyl-ethyl)-benzyl]-6-(4-oxo-2-thioxo-thiazolidin-5-ylidenemethyl)-4H-benzo[1,4]oxazin-3-one; Compound with Ethane-1,2-diamine], for which the concentration for half-maximal inhibition (IC50) came out at 8 nM.

For `Cc1cc(C#N)cc(CN2C(=O)COc3ccc(C=C4SC(=S)NC4=O)cc32)c1` [Example 120], the IC50 worked out at 30 nM. The result for `CC(C)c1cc(CN2C(=O)COc3ccc(C=C4SC(=S)NC4=O)cc32)cc(C(C)C)c1` [Example 210, 4-(3,5-Diisopropyl-benzyl)-6-(4-oxo-2-thioxo-thiazolidin-5-ylidenemethyl)-4H-benzo[1,4]oxazin-3-one] reads 45 nM; that for `Cc1cc(C)cc(CN2C(=O)COc3c(C)cc(C=C4SC(=S)NC4=O)cc32)c1` [Example 28, 4-(3,5-Dimethyl-benzyl)-8-methyl-6-(4-oxo-2-thioxo-thiazolidin-5-ylidenemethyl)-4H-1,4-benzoxazin-3-one], 3 nM. With `O=C1NC(=S)SC1=Cc1ccc2c(c1)N(Cc1cnc3ccccc3c1)C(=O)CO2` [Example 323, 6-(4-Oxo-2-thioxo-thiazolidin-5-ylidenemethyl)-4-quinolin-3-ylmethyl-4H-benzo[1,4]oxazin-3-one], the IC50 came to 29 nM. With `O=C1NC(=S)SC1=Cc1ccc2c(c1)N(Cc1ccc(CN3CCOCC3)cc1)C(=O)CO2` [Example 20, 4-(4-Morpholin-4-ylmethyl-benzyl)-6-(4-oxo-2-thioxo-thiazolidin-5-ylidenemethyl)-4H-1,4-benzoxazin-3-one], the IC50 was determined as 3 nM.

For the molecule `Cc1cc(CN2CCN(C)CC2)cc(CN2C(=O)COc3ccc(C=C4SC(=S)NC4=O)cc32)c1` [Example 255, 4-[3-Methyl-5-(4-methyl-piperazin-1-ylmethyl)-benzyl]-6-(4-oxo-2-thioxo-thiazolidin-5-ylidenemethyl)-4H-1,4-benzoxazin-3-one], the IC50 was found to be 15 nM.

For `O=C1COc2ncc(C=C3SC(=S)NC3=O)cc2N1` [Example 195, 7-(4-Oxo-2-thioxo-thiazolidin-5-ylidenemethyl)-1H-pyrido[2,3-b][1,4]oxazin-2-one], the half-maximal inhibitory concentration (IC50) was 1910 nM. Turning to `Cc1cc(C=C2SC(=O)NC2=O)cc2c1OCC(=O)N2Cc1cc(C(C)(C)C)nc(C(C)(C)C)c1` [Example 224, 5-[4-(2,6-Di-tert-butyl-pyridin-4-ylmethyl)-8-methyl-3-oxo-3,4-dihydro-2H-1,4-benzoxazin-6-ylmethylene]-thiazolidine-2,4-dione], the half-maximal inhibitory concentration (IC50) is 255 nM. `O=C1NC(=S)SC1=Cc1ccc2c(c1)N(Cc1cc(Br)cc(I)c1)C(=O)CO2` [Example 41, 4-(3-Bromo-5-iodo-benzyl)-6-(4-oxo-2-thioxo-thiazolidin-5-ylidenemethyl)-4H-1,4-benzoxazin-3-one]: the IC50 amounted to 61 nM. As for `CC(C)(C)c1ccc(CN2C(=O)COc3ccc(C=C4SC(=S)NC4=O)cc32)cc1` [Example 184, 4-(4-tert-Butyl-benzyl)-6-(4-oxo-2-thioxo-thiazolidin-5-ylidenemethyl)-4H-1,4-benzoxazin-3-one], the IC50 amounted to 3 nM. Regarding `NC(=O)CN1C(=O)COc2ccc(C=C3SC(=S)NC3=O)cc21` [Example 141, 2-[3-Oxo-6-(4-oxo-2-thioxo-thiazolidin-5-ylidenemethyl)-2,3-dihydrobenzo[1,4]oxazin-4-yl]-acetamide], the half-maximal inhibitory concentration (IC50) stood at 860 nM.

In the case of `O=C1NC(=S)SC1=Cc1ccc2c(c1)N(Cc1cccc(SC(F)(F)F)c1)C(=O)CO2` [Example 165, 6-(4-Oxo-2-thioxo-thiazolidin-5-ylidenemethyl)-4-(3-trifluoromethylsulfanyl-benzyl)-4H-1,4-benzoxazin-3-one], the IC50 is 15 nM. For the molecule `CC(=O)Nc1ccc(CN2C(=O)COc3ccc(C=C4SC(=S)NC4=O)cc32)cc1` [Example 177, N-{4-[3-Oxo-6-(4-oxo-2-thioxo-thiazolidin-5-ylidenemethyl)-2,3-dihydro-1,4-benzoxazin-4-ylmethyl]-phenyl}-acetamide], the IC50 was found to be 25 nM. On to `O=C1NC(=S)SC1=Cc1ccc2c(c1)N(Cc1cc(C(F)(F)F)cc(C(F)(F)F)c1)C(=O)CO2` [Example 29, 4-(3,5-Bis-trifluoromethyl-benzyl)-6-(4-oxo-2-thioxo-thiazolidin-5-ylidenemethyl)-4H-1,4-benzoxazin-3-one], for which the IC50 stood at 31 nM. Take `O=C1NC(=S)SC1=Cc1ccc2c(c1)N(Cc1ccccc1)C(=O)CS2` [Example 81, 4-Benzyl-6-(4-oxo-2-thioxo-thiazolidin-5-ylidenemethyl)-4H-1,4-benzothiazin-3-one]: the IC50 was 29 nM. For the molecule `CC(C)(C)c1cc(CN2C(=O)COc3ccc(C=C4SC(=S)NC4=O)cc32)cc(C(C)(C)O)c1` [Example 237, 4-[3-tert-Butyl-5(1-hydroxy-1-methyl-ethyl)-benzyl]-6-(4-oxo-2-thioxo-thazolidin-5-ylmethyl)-4H-benzo[1,4]oxazin-3-one], the IC50 was determined as 6 nM.
